In patent publication US7217688B2, “Methods and compositions for derepression of IAP-inhibited caspase” (The Burnham Institute, priority 2005, dated 2007):
Blank lines part the entries; values can stand above or below the compound they belong to. Square brackets hold non-standard residues; d marks the D form. Ends that are not written are not given here. * marks the point of attachment. Phe(4-Cl) = N[C@@H](Cc1ccc(Cl)cc1)C(=O)O; dPhe(4-Cl) = N[C@H](Cc1ccc(Cl)cc1)C(=O)O; dPhe(4-F) = N[C@H](Cc1ccc(F)cc1)C(=O)O; 2Nal = N[C@@H](Cc1ccc2ccccc2c1)C(=O)O; d2Nal = N[C@H](Cc1ccc2ccccc2c1)C(=O)O; Fmoc = O=C(OCC1c2ccccc2-c2ccccc21)*; 2Thi = N[C@@H](Cc1cccs1)C(=O)O; Cha = N[C@@H](CC1CCCCC1)C(=O)O

Key:
XIAP-inhibited caspase-3 = target: T1, XIAP-inhibited caspase-3 (Homo sapiens, UniProt P98170); test: caspase derepression assay (XIAP-inhibited caspase-3, Ac-DEVD-AFC hydrolysis); type: biochemical; conditions: for Activity: Table XIV, XIAP derepression assay; for LC (lowest concentration with a ratio of 2 or higher in the derepression assay): tested at 0.4, 2, 10 and 50 micrograms per milliliter; for reversing XIAP-mediated suppression of caspase 3: 50 μg/ml, full length XIAP
T1 construct: in the derepression assay using full length XIAP; made in house; host or cells: bacteria
T1 sequence (P98170 whole entry): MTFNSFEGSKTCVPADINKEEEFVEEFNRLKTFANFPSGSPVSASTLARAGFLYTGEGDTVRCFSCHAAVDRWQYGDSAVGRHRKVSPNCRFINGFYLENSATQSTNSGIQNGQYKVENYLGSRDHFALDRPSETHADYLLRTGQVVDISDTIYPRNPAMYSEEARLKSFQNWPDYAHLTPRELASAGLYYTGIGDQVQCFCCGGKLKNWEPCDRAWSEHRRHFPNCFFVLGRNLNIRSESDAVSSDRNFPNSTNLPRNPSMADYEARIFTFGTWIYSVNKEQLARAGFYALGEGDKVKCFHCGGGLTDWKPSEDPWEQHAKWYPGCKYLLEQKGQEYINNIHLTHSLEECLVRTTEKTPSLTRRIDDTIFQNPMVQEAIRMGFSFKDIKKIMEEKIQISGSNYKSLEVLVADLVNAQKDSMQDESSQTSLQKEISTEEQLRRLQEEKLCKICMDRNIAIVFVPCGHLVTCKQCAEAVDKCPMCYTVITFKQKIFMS
Description: Caspase activity was assayed by release of 7-amino-4-trifluoromethyl-coumarin (AFC) from Ac-DEVD-AFC synthetic peptide using a Molecular Devices Spectromax 340 (see Zhou et al., J. Biol. Chem. 272:7797–7800 (1997)). […] The ratio of Vmax for hydrolysis of Ac-DEVD-AFC in the presence and absence of the candidate mixture was calculated and used to identify those that contain an agent that derepresses an IAP-inhibited caspase.
Screening of each mixture from the DCR390, TPI 1239 or TPI 1328 library, respectively, using the above described assay was carried out as follows. Each mixture was aliquoted in a 25 microliter volume and in duplicate to a well of a 96 well microtiter plate. […] Fluorescence of liberated AFC was immediately detected from each well for 30 minutes at 30 second intervals. The Vmax for hydrolysis of AC-DEVD-AFC from each well was measured using the softmax software package. Results of the screen for the DCR390 library are shown in Table I. Sets of mixtures having the same position fixed with different respective amino acids are arranged in 6 sections identified with the position number. […] The mixture in each section are arranged in descending order according to apparent velocity in the second column.
Briefly, recombinant proteins were produced in bacteria and purified as described, for example, in Deveraux et al., Nature 388:300–304(1997). […] Generation of fluorogenic AFC (7-amino-4-trifluoromethyl coumarin) product was measured with a spectrofluorometric plate reader in kinetic mode for 30 minutes at 37° C. using excitation and emission wavelengths of 405 nm and 510 nm, respectively. […] Control reactions lacked XIAP, and all assays were conducted in the linear range of substrate hydrolysis to avoid substrate depletion artifacts.

Jurkat leukemia cells = test: Jurkat cell death (Annexin V / propidium iodide flow cytometry); type: cell-based; conditions: for ability to induce apoptosis in Jurkat cells: micromolar concentrations, compared to DMSO control
Description: The following assay was used to test the ability of individual compounds from the TPI 1396 and TPI 1391 libraries to induce apoptosis of cultured tumor cell lines. Each of the compounds listed in Table IX was individually added to Jurkat leukemia cells (6.25×10^5 cells/mL) in RPMI containing 2.5% FBS at various concentrations for 20 hours. After incubation, cells were washed and stained with FITC-conjugated Annexin V antibody and propidium iodide (Biovision; Mountain View, Calif.). Cells were incubated for 20 minutes at room temperature in the dark and fluorescence was measured by flow cytometry (FACScan, Immunocytometry system; Becton-Dickinson; San Jose, Calif.). Cells staining positive for Annexin V were deemed non-viable.

[1] = system: NCI panel of 60 tumor cell lines; test: NCI panel of 60 tumor cell lines, protein-based colorimetric assay; design: species or system human; conditions: 48 hours
Description: Selected polyphenylurea compounds were tested on the National Cancer Institute (NCI) panel of 60 tumor cell lines (see FIG. 28a and FIG. 29).

[2] = Table XI, different functionalities at R2

Compound: CN(CCCCC(CNC(=O)Nc1ccccc1)N(CC1CCCN1CCC12CC3CC(CC(C3)C1)C2)C(=O)Nc1ccccc1)C(=O)Nc1ccccc1 (centres unmarked) [TPI 1396-11]
Activity (relative caspase-3 activity, ratio of Vmax with compound to Vmax of caspase-3 and XIAP controls) (XIAP-inhibited caspase-3; Table X, R2 = L-Proline): 2.6 | activity in the derepression assay using full length XIAP (XIAP-inhibited caspase-3; active / inactive): active | % nonviable cells (Jurkat leukemia cells; 1 µM): 14% | % nonviable cells (Jurkat leukemia cells; 10 μM): 90% | % nonviable cells (Jurkat leukemia cells; 25 µM): 90% | % nonviable cells (Jurkat leukemia cells; 50 µM): 90% | average LD50 for the 60 cell lines [1]: 10 ± 2.8 µM | median LD50 for the 60 cell lines [1]: 17 µM

Compound: COc1ccc(CCN(CCCC[C@@H](CN(C(=O)Nc2ccccc2)[C@@H](CNC(=O)Nc2ccccc2)CC2CCCCC2)N(C)C(=O)Nc2ccccc2)C(=O)Nc2ccccc2)cc1 [TPI 1396-25]
Activity (relative caspase-3 activity, ratio of Vmax with compound to Vmax of caspase-3 and XIAP controls) (XIAP-inhibited caspase-3; [2]): 1.6

Compound: CCN1CCC[C@@H]1CN(C)[C@@H](CNC(=O)Nc1ccccc1)CC1CCCCC1 [TPI 1567-5]
Activity (XIAP-inhibited caspase-3): 209 µM

Compound: COc1ccc(CCN2CCC[C@@H]2CN(C)[C@@H](CNC(=O)Nc2ccc(C)cc2)CC2CCCCC2)cc1 [TPI 1567-11]
Activity (XIAP-inhibited caspase-3): 75 µM | ability to induce apoptosis in Jurkat cells (Jurkat leukemia cells): capable of inducing apoptosis

Compound: COc1ccc(CCN2CCC[C@@H]2CN(C)[C@@H](CNC(=O)Nc2cc(Br)cc(Br)c2)CC2CCCCC2)cc1 [TPI 1567-14]
Activity (XIAP-inhibited caspase-3): 81 µM | ability to induce apoptosis in Jurkat cells (Jurkat leukemia cells): capable of inducing apoptosis

Compound: CN(C[C@@H]1CCCN1CCC12CC3CC(CC(C3)C1)C2)[C@H](CCCCNC(=O)Nc1ccccc1)CNC(=O)Nc1ccccc1 [TPI 1567-18]
Activity (XIAP-inhibited caspase-3): 61 µM

Compound: COc1ccc(CCN2C[C@@H](O)C[C@@H]2CN(C(=O)Nc2ccccc2)[C@@H](CNC(=O)Nc2ccccc2)CC2CCCCC2)cc1 [TPI 1567-23]
Activity (XIAP-inhibited caspase-3): 35 µM

Compound: COc1ccc(CCN2C[C@@H](O)C[C@@H]2CN(C)[C@@H](CNC(=O)Nc2ccccc2)CC2CCCCC2)cc1 [TPI 1567-24]
Activity (XIAP-inhibited caspase-3): 122 µM

Compound: COc1ccc(CCN2CCC[C@H]2CNC(=O)Nc2ccccc2)cc1 [TPI 1572-8]
Activity (XIAP-inhibited caspase-3): >283 µM

Compound: O=C(NC[C@@H](CC1CCCCC1)N(C[C@@H]1CCCN1)C(=O)Nc1ccccc1)Nc1ccccc1 [TPI 1572-10]
Activity (XIAP-inhibited caspase-3): >210 µM

Compound: CCN1CCC[C@H]1CN(C(=O)Nc1ccccc1)[C@@H](CNC(=O)Nc1ccccc1)CC1CCCCC1 [TPI 1572-11]
Activity (XIAP-inhibited caspase-3): 89 µM

Compound: COc1ccc(CCN2CCC[C@H]2CN(C)[C@@H](CNC(=O)Nc2ccccc2)CC2CCCCC2)cc1 [TPI 1572-14]
Activity (XIAP-inhibited caspase-3): 103 µM

Compound: COc1ccc(CCN2CCC[C@H]2CN(C(=O)Nc2ccccc2)[C@H](C)CNC(=O)Nc2ccccc2)cc1 [TPI 1572-16]
Activity (XIAP-inhibited caspase-3): 149 µM

Compound: CNC[C@@H](CC1CCCCC1)N(C[C@@H]1CCCN1CCc1ccc(OC)cc1)C(=O)Nc1ccccc1 [TPI 1572-17]
Activity (XIAP-inhibited caspase-3): 132 µM

Compound: COc1ccc(CCN2CCC[C@H]2CN(C(=O)c2ccccc2)[C@@H](CNC(=O)c2ccccc2)CC2CCCCC2)cc1 [TPI 1572-18]
Activity (XIAP-inhibited caspase-3): 164 µM

Compound: COc1ccc(CCN2CCC[C@H]2CN(C(=O)Nc2ccc(C)cc2)[C@@H](CNC(=O)Nc2ccc(C)cc2)CC2CCCCC2)cc1 [TPI 1572-21]
Activity (XIAP-inhibited caspase-3): 69 µM

Compound: COc1ccc(CCN2CCC[C@H]2CN(C(=O)Nc2ccc([N+](=O)[O-])cc2)[C@@H](CNC(=O)Nc2ccc([N+](=O)[O-])cc2)CC2CCCCC2)cc1 [TPI 1572-23]
Activity (XIAP-inhibited caspase-3): 94 µM

Compound: COc1ccc(CCN2CCC[C@@H]2CN(C)[C@H](C)CNC(=O)Nc2ccccc2)cc1 [TPI 1577-1]
Activity (XIAP-inhibited caspase-3): 252 µM

Compound: COc1ccc(CCN2CCC[C@@H]2CN(C)CCNC(=O)Nc2ccccc2)cc1 [TPI 1577-2]
Activity (XIAP-inhibited caspase-3): 157 µM

Compound: COc1ccc(CCN2CCC[C@@H]2CN(C)[C@@H](CNC(=O)Nc2ccccc2)CC(C)C)cc1 [TPI 1577-3]
Activity (XIAP-inhibited caspase-3): >241 µM

Compound: CN(C[C@H]1CCCN1CCc1ccc(F)cc1)[C@@H](CNC(=O)Nc1ccccc1)CC1CCCCC1 [TPI 1577-7]
Activity (XIAP-inhibited caspase-3): 71 µM

Compound: Cc1ccc(CCN2CCC[C@@H]2CN(C)[C@@H](CNC(=O)Nc2ccccc2)CC2CCCCC2)cc1 [TPI 1577-8]
Activity (XIAP-inhibited caspase-3): 88 µM

Compound: (D-Nal)-(D-pClPhe)-(L-pC1Phe)-(Lys-εFmoc) ([d2Nal][dPhe(4-Cl)][Phe(4-Cl)]K(Fmoc)) [TPI 792-9]
LC (lowest concentration with a ratio of 2 or higher in the derepression assay) (XIAP-inhibited caspase-3): 10 µg/mL

Compound: (L-ThiAla)-(D-pClPhe)-(L-pClPhe)-(Lys-εFmoc) ([2Thi][dPhe(4-Cl)][Phe(4-Cl)]K(Fmoc)) [TPI 792-27]
LC (lowest concentration with a ratio of 2 or higher in the derepression assay) (XIAP-inhibited caspase-3): 2 µg/mL

Further lines, with some results ahead:

Activity (relative caspase-3 activity, ratio of Vmax with compound to Vmax of caspase-3 and XIAP controls) (XIAP-inhibited caspase-3; [2]): 1.3
Compound: COc1ccc(CCN(C(=O)Nc2ccccc2)[C@H](Cc2ccccc2)CN(C(=O)Nc2ccccc2)[C@@H](CNC(=O)Nc2ccccc2)CC2CCCCC2)cc1 [TPI 1396-31]

Activity (XIAP-inhibited caspase-3): 124 µM
Compound: COc1ccc(CCN2CCC[C@@H]2CN(C)[C@@H](CNC(=O)Nc2ccc(F)cc2)CC2CCCCC2)cc1 [TPI 1567-12]
ability to induce apoptosis in Jurkat cells (Jurkat leukemia cells): capable of inducing apoptosis

Activity (XIAP-inhibited caspase-3): 58 µM
Compound: COc1ccc(CCN2CCC[C@@H]2CN(C)[C@@H](CNC(=O)Nc2ccc(I)cc2)CC2CCCCC2)cc1 [TPI 1567-13]
ability to induce apoptosis in Jurkat cells (Jurkat leukemia cells): capable of inducing apoptosis

Activity (XIAP-inhibited caspase-3): 171 µM
Compound: COc1ccc(CCN2CCC[C@H]2CN(CCNC(=O)Nc2ccccc2)C(=O)Nc2ccccc2)cc1 [TPI 1572-15]

Activity (XIAP-inhibited caspase-3): >219 µM
Compound: COc1ccc(CCN2CCC[C@H]2CN(C(C)=O)[C@@H](CNC(C)=O)CC2CCCCC2)cc1 [TPI 1572-19]

Activity (XIAP-inhibited caspase-3): 235 µM
Compound: CCNC(=O)NC[C@@H](CC1CCCCC1)N(C[C@@H]1CCCN1CCc1ccc(OC)cc1)C(=O)NCC [TPI 1572-20]

Activity (XIAP-inhibited caspase-3): 79 µM
Compound: COc1ccc(CCN2CCC[C@H]2CN(C(=O)Nc2ccc(F)cc2)[C@@H](CNC(=O)Nc2ccc(F)cc2)CC2CCCCC2)cc1 [TPI 1572-22]

Activity (XIAP-inhibited caspase-3): 113 µM
Compound: CN(C[C@H]1CCCN1CCc1ccccc1)[C@@H](CNC(=O)Nc1ccccc1)CC1CCCCC1 [TPI 1577-6]

Activity (XIAP-inhibited caspase-3): 23 µM
Compound: COc1ccc(CCN2CCC[C@@H]2CN(C)[C@@H](CNC(=O)Nc2ccc3ccccc3c2)CC2CCCCC2)cc1 [TPI 1577-9]
ability to induce apoptosis in Jurkat cells (Jurkat leukemia cells): capable of inducing apoptosis

LC (lowest concentration with a ratio of 2 or higher in the derepression assay) (XIAP-inhibited caspase-3): 2 µg/mL
Compound: (D-Nal)-(L-Nal)-(D-Lys-εFmoc)-(Lys-εFmoc) ([d2Nal][2Nal][dK](Fmoc)K(Fmoc)) [TPI 792-17]

LC (lowest concentration with a ratio of 2 or higher in the derepression assay) (XIAP-inhibited caspase-3): 2 µg/mL
Compound: (D-Nal)-(L-Nal)-(L-pClPhe)-(Lys-εFmoc) ([d2Nal][2Nal][Phe(4-Cl)]K(Fmoc)) [TPI 792-15]

LC (lowest concentration with a ratio of 2 or higher in the derepression assay) (XIAP-inhibited caspase-3): 2 µg/mL
Compound: (D-Nal)-(Lys-εFmoc)-(L-pClPhe)-(Lys-εFmoc) ([d2Nal]K(Fmoc)[Phe(4-Cl)]K(Fmoc)) [TPI 792-3]

reversing XIAP-mediated suppression of caspase 3 (XIAP-inhibited caspase-3): Active
Compound: (L-Ala)-(D-Trp)-(L-Trp)-(L-ThiAla) (A[dW]W[2Thi]) [TPI 1332-47]

reversing XIAP-mediated suppression of caspase 3 (XIAP-inhibited caspase-3): Active
Compound: (L-Ala)-(L-Trp)-(L-Trp)-(L-ThiAla) (AWW[2Thi]) [TPI 1332-1]

reversing XIAP-mediated suppression of caspase 3 (XIAP-inhibited caspase-3): Active
Compound: (L-Cha)-(D-Na1)-(L-Trp)-(L-ThiAla) ([Cha][d2Nal]W[2Thi]) [TPI 1332-41]

LC (lowest concentration with a ratio of 2 or higher in the derepression assay) (XIAP-inhibited caspase-3): 2 µg/mL
Compound: (L-ThiAla)-(Lys-εFmoc)-(D-Nal)-(Lys-εFmoc) ([2Thi]K(Fmoc)[d2Nal]K(Fmoc)) [TPI 792-19]

LC (lowest concentration with a ratio of 2 or higher in the derepression assay) (XIAP-inhibited caspase-3): 2 µg/mL
Compound: (L-ThiAla)-(Lys-εFmoc)-(L-pClPhe)-(pF-D-F) ([2Thi]K(Fmoc)[Phe(4-Cl)][dPhe(4-F)]) [TPI 792-22]
